PubChem BioAssay (NCI)
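Dose response: 5 concentrations. Exposure: 48 h. Format: 96-well plates. Endpoint: linear interpolation; highest concentration if not reached. TGI marks complete inhibition of growth.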

What was measured:
Experiment in all cases: NCI tumour cell line growth inhibition, 48 h
786-0 renal = tested on: 786-0 renal
A498 renal = tested on: A498 renal
A549 NSCLC = tested on: A549 NSCLC
ACHN renal = tested on: ACHN renal
CAKI-1 renal = tested on: CAKI-1 renal
CCRF-CEM leukemia = tested on: CCRF-CEM leukemia
COLO 205 colon = tested on: COLO 205 colon
DMS 114 small cell lung = tested on: DMS 114 small cell lung
DMS 273 small cell lung = tested on: DMS 273 small cell lung
EKVX NSCLC = tested on: EKVX NSCLC
HCT-116 colon = tested on: HCT-116 colon
HCT-15 colon = tested on: HCT-15 colon
HL-60(TB) leukemia = tested on: HL-60(TB) leukemia
HOP-62 NSCLC = tested on: HOP-62 NSCLC
HT29 colon = tested on: HT29 colon
K-562 leukemia = tested on: K-562 leukemia
KM12 colon = tested on: KM12 colon
KM20L2 colon = tested on: KM20L2 colon
LOX IMVI melanoma = tested on: LOX IMVI melanoma
LXFL 529 NSCLC = tested on: LXFL 529 NSCLC
M14 melanoma = tested on: M14 melanoma
M19-MEL melanoma = tested on: M19-MEL melanoma
MALME-3M melanoma = tested on: MALME-3M melanoma
MOLT-4 leukemia = tested on: MOLT-4 leukemia
NCI-H226 lung = tested on: NCI-H226 lung
NCI-H23 lung = tested on: NCI-H23 lung
NCI-H460 lung = tested on: NCI-H460 lung
NCI-H522 lung = tested on: NCI-H522 lung
OVCAR-3 ovarian = tested on: OVCAR-3 ovarian
OVCAR-4 ovarian = tested on: OVCAR-4 ovarian
OVCAR-5 ovarian = tested on: OVCAR-5 ovarian
OVCAR-8 ovarian = tested on: OVCAR-8 ovarian
RPMI-8226 leukemia = tested on: RPMI-8226 leukemia
RXF 393 renal = tested on: RXF 393 renal
SF-268 CNS = tested on: SF-268 CNS
SF-295 CNS = tested on: SF-295 CNS
SF-539 CNS = tested on: SF-539 CNS
SK-MEL-2 melanoma = tested on: SK-MEL-2 melanoma
SK-MEL-28 melanoma = tested on: SK-MEL-28 melanoma
SK-MEL-5 melanoma = tested on: SK-MEL-5 melanoma
SN12C renal = tested on: SN12C renal
SNB-19 CNS = tested on: SNB-19 CNS
SNB-75 CNS = tested on: SNB-75 CNS
SNB-78 CNS = tested on: SNB-78 CNS
SR leukemia = tested on: SR leukemia
SW-620 colon = tested on: SW-620 colon
TK-10 renal = tested on: TK-10 renal
U251 CNS = tested on: U251 CNS
UACC-257 melanoma = tested on: UACC-257 melanoma
UO-31 renal = tested on: UO-31 renal
XF 498 CNS = tested on: XF 498 CNS
DLD-1 colon = tested on: DLD-1 colon
HCC-2998 colon = tested on: HCC-2998 colon
HOP-18 NSCLC = tested on: HOP-18 NSCLC
HOP-92 NSCLC = tested on: HOP-92 NSCLC
IGROV1 ovarian = tested on: IGROV1 ovarian
RXF-631 renal = tested on: RXF-631 renal
SK-OV-3 ovarian = tested on: SK-OV-3 ovarian
UACC-62 melanoma = tested on: UACC-62 melanoma

Measured: TGI

COc1cc(-c2ccc(NC(=O)SCCC(=O)O)cc2OC)ccc1NC(=O)SCCC(=O)O
not listed: DLD-1 colon | HCC-2998 colon | HOP-18 NSCLC | HOP-92 NSCLC | IGROV1 ovarian | RXF-631 renal | SK-OV-3 ovarian | UACC-62 melanoma
> 100 µM: all other assays above

C[C@@H]1OC2(O)[C@H]3CCCN3S(=O)(=O)CCN2C1=O (stereo partly specified)
not listed: DMS 114 small cell lung | DMS 273 small cell lung | SK-MEL-2 melanoma | XF 498 CNS
> 100 µM: all other assays above
